Earlier results in US20170239312A1, “WEIGHT MANAGEMENT SYSTEMS AND RELATED METHODS” (priority 2013, published 2017).

Experiments:
[1] = caffeine alone
[2] = fed capsaicin versus saline (control group)
3T3-L1 pre-adipocytes = conditions: dose- and time-dependent
[3] = obese rats, 10 mg/kg-body weight
[4] = 50-200 mg/day
[5] = mice, high fat diet, 10 weeks

In the case of `Cn1c(=O)c2c(ncn2C)n(C)c1=O` [Caffeine], the “Effect on thermogenesis or fat oxidation” value [1] is given as “no effect”.
For `COc1cc(CNC(=O)CCCC/C=C/C(C)C)ccc1O` [capsaicin], the “Decrease in body weight” value [2] is listed as 8%.
In the case of `O=c1c(O)c(-c2ccc(O)c(O)c2)oc2cc(O)cc(O)c12` [quercetin], the “Apoptosis (cell suicide)” value (3T3-L1 pre-adipocytes) is listed as “induced apoptosis” and the Body weight gain [3] is listed as “reduced body weight gain”.
For `CCNC(=O)CC[C@H](N)C(=O)O` [theanine], the “Time to sense of relaxation” value [4] is listed as 30 to 40 min.
In the case of fucoxanthin, the “Body weight and adipose tissue” value [5] is listed as “significant decrease in body weight and adipose tissue”.
